Laboratory results: patent US9527859B2, “Amidopyridine derivative and use thereof” (Mitsubishi Tanabe Pharma Corporation, priority 2012, dated 2016)

Tested on: production of IL-17 in mouse splenocytes stimulated by recombinant mouse interleukin-23
Assay: Production of IL-17 induced when mouse splenocytes were stimulated by rm-IL-23 (ELISA)
Format: cell-based
Settings: Splenocyte, inhibition of IL-17 production, rm-IL-23 1 nmol/L, 72 hours
Description: Effect on Production of IL-17 Induced when Mouse Splenocytes were Stimulated by Recombinant Mouse Interleukin-23 (rm-IL-23)
RPMI1640 media (Sigma-Aldrich) were used as a medium, to which 50 units/mL penicillin G potassium/50 μg/mL streptomycin (Gibco) and […] 2-mercaptoethanol (Sigma-Aldrich) were added, and then thereto was added 10% of fetal calf serum (FCS; Cell Culture Technology) which was treated at 56° C. for 30 minutes to be inactivated, and the mixture was used in the Test. The test compound was dissolved in dimethylsulfoxide and then diluted with 10% FCS-containing RPMI1640 medium to a desired concentration to be used. The spleens were aseptically taken out from 6 to 7 week-old male DBA/1J mice (Charles River Japan, Inc.) and a single cell suspension of splenocytes was prepared, which was hemolyzed by hypotonic treatment with a mixed solution of 0.83% aqueous solution of ammonium chloride and Tris-HCl buffer of pH 7.65 (9:1). A cell suspension prepared by using 10% FCS-containing RPMI1640 medium was added to a flat-bottomed 96 well microtestplate (Coaster) at 2×10^5 cells/well. Thereto were added test compounds and rm-IL-23 (R&D systems) were diluted with a medium to 1 to 1,000 nmol/L and 1 nmol/L of the final concentration, respectively, and the mixture was cultured at 37° C., 5% carbon dioxide and 95% air for 72 hours. After completion of the culture, culture supernatant was sampled and production amounts of IL-17 therein were determined by ELISA method. After sampling the supernatant, WST-8 (Seikagaku Corporation) was added at 10 μl/well and cultured at 37° C., 5% carbon dioxide and 95% air for 4 hours. Then, absorbance (O.D.: Optical Density) at 450 nm was measured by a microplate reader and the value was adopted as an index of cell survivability. An inhibition rate was calculated according to the following formula on the basis of an average of production amounts of IL-17 and O.D. values of the well containing a test compound of each concentration. Inhibition (%)=(1−(Average value of well with addition of test compound)/(Average value of well without addition of test compound))×100
Based on the dose-response curve obtained by plotting the inhibition rate in the longitudinal axis and the concentration in the horizontal axis, the concentration of the compound which inhibits the level to 50% of the value of the control group (IC50) (nmol/L) was determined by linear regression analysis.

Structure (SMILES) | IC50
Cc1c(C(=O)Nc2cnc(N3CCC(O)CC3)c(C3CC3)c2)cnn1-c1ccc(Cl)cc1Cl [Example 9, N-[5-cyclopropyl-6-(4-hydroxypiperidin-1-yl)pyridin-3-yl]-1-(2,4-dichlorophenyl)-5-methyl-1H-pyrazole-4-carboxamide] | 331 nM
Cc1cc(NC(=O)c2cnn(-c3ccc(C(F)(F)F)cc3)c2C)cnc1N1CCC(O)CC1 [Example 15, N-[6-(4-hydroxypiperidin-1-yl)-5-methylpyridin-3-yl]-5-methyl-1-[4-(trifluoromethyl)phenyl]-1H-pyrazole-4-carboxamide] | 293 nM
COC1CCN(c2ncc(NC(=O)c3cnn(-c4ccc(Cl)cc4)c3C)cc2C)CC1 [Example 16, 1-(4-chlorophenyl)-N-[6-(4-methoxypiperidin-1-yl)-5-methylpyridin-3-yl]-5-methyl-1H-pyrazole-4-carboxamide] | 264 nM
CC(=O)OC1CCN(c2ncc(NC(=O)c3cnn(-c4ccc(Cl)cc4)c3C)cc2C#N)CC1 [Example 19, acetic acid (1-{5-[1-(4-chlorophenyl)-5-methyl-1H-pyrazole-4-carboxamide]-3-cyanopyridin-2-yl}piperidin-4-yl)ester] | 213 nM
N#Cc1cc(NC(=O)c2cnn(-c3ccc(Cl)cc3)c2C2CC2)cnc1N1CCC(CCO)CC1 [Example 22, 1-(4-chlorophenyl)-N-{5-cyano-6-[4-(2-hydroxyethyl)piperidin-1-yl]pyridin-3-yl}-5-cyclopropyl-1H-pyrazole-4-carboxamide] | 194 nM
Cc1c(C(=O)Nc2cnc(N3CCC(O)CC3)c(C#N)c2)cnn1-c1ccc(C(C)(C)C)cc1 [Example 23, 1-(4-tert-butylphenyl)-N-[5-cyano-6-(4-hydroxypiperidin-1-yl)pyridin-3-yl]-5-methyl-1H-pyrazole-4-carboxamide] | 193 nM
Cc1cc(NC(=O)c2ccn(-c3ccc(C#N)cn3)c2)cnc1N1CCC(C(C)(C)F)CC1 [Example 24, 1-(5-cyanopyridin-2-yl)-N-{6-[4-(1-fluoro-1-methylethyl)piperidin-1-yl]-5-methylpyridin-3-yl}-1H-pyrrole-3-carboxamide] | 180 nM
CC(=O)OCCC1CCN(c2ncc(NC(=O)c3cnn(-c4ccc(F)cc4)c3C)cc2C#N)CC1 [Example 25, acetic acid [2-(1-{3-cyano-5-[1-(4-fluorophenyl)-5-methyl-1H-pyrazole-4-carboxamide]pyridin-2-yl}piperidin-4-yl)ethyl]ester] | 161 nM
Cc1cc(NC(=O)c2cnn(-c3ccccn3)c2C)cnc1N1CCC(CC(C)(C)O)CC1 [Example 26, N-{6-[4-(2-hydroxy-2-methylpropyl)piperidin-1-yl]-5-methylpyridin-3-yl}-5-methyl-1-(pyridin-2-yl)-1H-pyrazole-4-carboxamide] | 173 nM
Cc1cc(NC(=O)c2cnn(-c3ccc(F)c(F)c3)c2C)cnc1N1CCC(C(C)O)CC1 (stereo not shown) [Example 27, 1-(3,4-difluorophenyl)-N-{6-[4-(1-hydroxyethyl)piperidin-1-yl]-5-methylpyridin-3-yl}-5-methyl-1H-pyrazole-4-carboxamide] | 171 nM
Cc1cc(NC(=O)c2cnn(-c3ccc(F)cc3)c2C)cnc1N1CCC(C(C)O)CC1 (stereo not shown) [Example 28, 1-(4-fluorophenyl)-N-{6-[4-(1-hydroxyethyl)piperidin-1-yl]-5-methylpyridin-3-yl}-5-methyl-1H-pyrazole-4-carboxamide] | 170 nM
Cc1c(C(=O)Nc2cnc(N3CCC(=O)CC3)c(C#N)c2)cnn1-c1ccc(Cl)cc1 [Example 29, 1-(4-chlorophenyl)-N-[5-cyano-6-(4-oxopiperidin-1-yl)pyridin-3-yl]-5-methyl-1H-pyrazole-4-carboxamide] | 168 nM
Cc1c(C(=O)Nc2cnc(N3CCC(CCO)CC3)c(C#N)c2)cnn1-c1ccc(F)cc1 [Example 30, N-{5-cyano-6-[4-(2-hydroxyethyl)piperidin-1-yl]pyridin-3-yl}-1-(4-fluorophenyl)-5-methyl-1H-pyrazole-4-carboxamide] | 175 nM
COCCC1CCN(c2ncc(NC(=O)c3cnn(-c4ccc(C(F)(F)F)cn4)c3C)cc2C)CC1 [Example 31] | 158 nM
Cc1ccc(-n2ncc(C(=O)Nc3cnc(N4CCC(C(C)(C)F)CC4)c(C)c3)c2C)cc1 [Example 32, N-{6-[4-(1-fluoro-1-methylethyl)piperidin-1-yl]-5-methylpyridin-3-yl}-5-methyl-1-(4-methylphenyl)-1H-pyrazole-4-carboxamide] | 155 nM
COCC1CCN(c2ncc(NC(=O)c3cnn(-c4ccc(C(F)(F)F)cc4)c3C)cc2C)CC1 [Example 33, N-{6-[4-(1-methoxymethyl)piperidin-1-yl]-5-methylpyridin-3-yl}-5-methyl-1-[4-(trifluoromethyl)phenyl]-1H-pyrazole-4-carboxamide] | 153 nM
Cc1cc(NC(=O)c2cnn(-c3ccc(F)cc3)c2C)cnc1N1CCC(C(C)(C)F)CC1 [Example 34, N-{6-[4-(1-fluoro-1-methylethyl)piperidin-1-yl]-5-methylpyridin-3-yl}-1-(4-fluorophenyl)-5-methyl-1H-pyrazole-4-carboxamide] | 151 nM
COc1ccc(-n2ncc(C(=O)Nc3cnc(N4CCC(C(C)(C)F)CC4)c(C)c3)c2C)cc1 [Example 35, N-{6-[4-(1-fluoro-1-methylethyl)piperidin-1-yl]-5-methylpyridin-3-yl}-1-(4-methoxyphenyl)-5-methyl-1H-pyrazole-4-carboxamide] | 150 nM

Second part, the compound after the results:

IC50 | Structure (SMILES)
142 nM | Cc1c(C(=O)Nc2cnc(N3CCC(O)CC3)c(Cl)c2)cnn1-c1ccc(Cl)cc1 [Example 36, N-[5-chloro-6-(4-hydroxypiperidin-1-yl)pyridin-3-yl]-1-(4-chlorophenyl)-5-methyl-1H-pyrazole-4-carboxamide]
140 nM | N#Cc1cc(NC(=O)c2ccn(-c3ccc(F)cc3)c2)cnc1N1CCC(CCO)CC1 [Example 37, N-{5-cyano-6-[4-(2-hydroxyethyl)piperidin-1-yl]pyridin-3-yl}-1-(4-fluorophenyl)-1H-pyrrole-3-carboxamide]
140 nM | Cc1cc(NC(=O)c2cnn(-c3ccc(Cl)cn3)c2C)cnc1N1CCC(C(C)(C)F)CC1 [Example 38, 1-(5-chloropyridin-2-yl)-N-{6-[4-(1-fluoro-1-methylethyl)piperidin-1-yl]-5-methylpyridin-3-yl}-5-methyl-1H-pyrazole-4-carboxamide]
116 nM | CC(=O)OCCC1CCN(c2ncc(NC(=O)c3cnn(-c4ccc(Cl)cc4)c3C)cc2C#N)CC1 [Example 40, acetic acid [2-(1-{5-[1-(4-chlorophenyl)-5-methyl-1H-pyrazole-4-carboxamide]-3-cyanopyridin-2-yl}piperidin-4-yl)ethyl]ester]
112 nM | Cc1cc(NC(=O)c2cnn(-c3ccc(Cl)cc3)c2C)cnc1N1CCC(C(C)(C)F)CC1 [Example 41, 1-(4-chlorophenyl)-N-{6-[4-(1-fluoro-1-methylethyl)piperidin-1-yl]-5-methylpyridin-3-yl}-5-methyl-1H-pyrazole-4-carboxamide]
106 nM | Cc1c(C(=O)Nc2cnc(N3CCC(CCO)CC3)c(C3CC3)c2)cnn1-c1ccc(Cl)cc1 [Example 42, 1-(4-chlorophenyl)-N-{5-cyclopropyl-6-[4-(2-hydroxyethyl)piperidin-1-yl]pyridin-3-yl}-5-methyl-1H-pyrazole-4-carboxamide]
60.8 nM | Cc1cc(NC(=O)c2ccn(-c3ccc(C#N)cn3)c2)cnc1N1CCC(C(C)(C)O)CC1 [Example 46, 1-(5-cyanopyridin-2-yl)-N-{6-[4-(1-hydroxy-1-methylethyl)piperidin-1-yl]-5-methylpyridin-3-yl}-1H-pyrrole-3-carboxamide]
56.4 nM | Cc1cc(NC(=O)c2cnn(-c3ncc(Cl)cc3Cl)c2C)cnc1N1CCC(C(C)(C)F)CC1 [Example 48, 1-(3,5-dichloropyridin-2-yl)-N-{6-[4-(1-fluoro-1-methylethyl)piperidin-1-yl]-5-methylpyridin-3-yl}-5-methyl-1H-pyrazole-4-carboxamide]
54.1 nM | Cc1cc(NC(=O)c2cnn(-c3ccccc3)c2C)cnc1N1CCC(CC(C)(C)O)CC1 [Example 50, N-{6-[4-(2-hydroxy-2-methylpropyl)piperidin-1-yl]-5-methylpyridin-3-yl}-5-methyl-1-phenyl-1H-pyrazole-4-carboxamide]
53.5 nM | Cc1c(C(=O)Nc2cnc(N3CCC(CCO)CC3)c(C#N)c2)cnn1-c1ccc(Cl)cc1 [Example 51, 1-(4-chlorophenyl)-N-{5-cyano-6-[4-(2-hydroxyethyl)piperidin-1-yl]pyridin-3-yl}-5-methyl-1H-pyrazole-4-carboxamide]
